The text below walks through data of patent US20230233671A1, “RNA MOLECULES” (Pfizer Inc., priority 2021, published 2023).

Series [1] has as its system Vero cells. The series can be described thus: VZV gE expression and subcellular localization in Vero cells transfected with VZV RNA constructs (imaging). The series is classed as cell-based, African green monkeys. The following applies: for VZV RNA (Vero cells) MFI: Table 7, VZV gE RNA, see Example 2. The method, then: Expression of VZV RNA constructs were tested in transfected Vero cells, a kidney epithelial cell culture line derived from African green monkeys. Seeded Vero cells were transfected for 24 hours at 37° C., 5% CO2 with 10 ng, 25 ng, or 50 ng of RNA constructs (Table 5) using MESSENGERMAX™ in accordance with the manufacturer's instructions. Cells were washed three times with PBS+Ca/Mg, and fixed in 4% paraformaldehyde (PFA) for 20 minutes at 25° C. Cells were washed twice with 3% bovine serum albumin (BSA) in PBS+Ca/Mg. Primary and secondary staining antibodies were diluted in 0.1% saponin in goat serum. Cells were stained with a 1:1000 dilution of primary antibody for 1 hour at 37° C., washed three times with PBS+Ca/Mg, and incubated with secondary antibody (1:500) and CELLMASK™ (1:140,000) for 45 minutes at 37° C. Cells were then stained with Dapi (1:15,000-1:20,000) for 15 minutes at 25° C., and washed three times with PBS+Ca/Mg. Cells were analyzed for VZV gE expression and subcellular localization using an Opera PHENIX® Plus High-Content Screening System at 10× or 63× magnification.

For series [2], the system named is human embryonic kidney (HEK) 293T cells. The series can be described thus: In vitro expression (IVE) of VZV RNA-LNP vaccines in HEK 293T cells (FACS). The following applies: for VZV RNA-LNPs (293T cells) MFI: Table 7; for VZV RNA-LNPs (293T cells) EC50 (ng/well): Table 7, FIG. 14, input RNA vs percentage of gE-expressing cells, 24 hours. The series is classed as cell-based. On the procedure: In vitro expression (IVE) analyses were conducted to assess the potency of VZV RNA-LNP vaccines. RNA constructs were formulated into LNPs as previously described in Example 3, and a range of input VZV RNA-LNP quantities was transfected into human embryonic kidney (HEK) 293T cells for 24 hours at 37° C., 5% CO2. Transfected cells were washed with DPBS, detached from plate wells using ACCUTASE®, and rinsed with cold PBS. Cells were subjected to live/dead staining, fixation, and permeabilization prior to FACS staining. Fixed and permeabilized cells were incubated with an anti-gE primary antibody (1:1000) for 45 minutes at 2-8° C., washed twice with BD PERM/WASH™ buffer and incubated with a goat anti-human kappa-PE secondary antibody (1:1000) for 30 minutes at 2-8° C. Cells were washed twice with BD PERM/WASH™ buffer, resuspended in 1×FACS buffer, and analyzed on a BD LSRII to determine the proportion of cells expressing VZV gE for each VZV RNA-LNP input. A titration curve was created whereby input RNA quantities were plotted against the percentage of gE-expressing cells to determine the EC50 of each VZV RNA-LNP vaccine.

Series [3] has as its system VZV gE. Put plainly: Serum VZV gE-binding IgG levels (LUMINEX) in immunized Balb/c mice. The following applies: for Day 28 (GMC), serum gE-binding IgG: 0.5 μg IM Day 0, Day 28 (prime only); for Day 34 (GMC), serum gE-binding IgG: 0.5 μg IM Days 0 and 28, Day 34 (six days after boost); for Day 42 (GMC), serum gE-binding IgG: 0.5 μg IM Days 0 and 28, Day 42 (two weeks after booster). The series is classed as in vivo. On the procedure:
VZV RNA-LNP vaccines were tested for their ability to induce IgG and T cell responses in Balb/c mice. 15 mice per group were immunized in accordance with the schedule and specifications in Table 9. Briefly, 15 mice per group were immunized intramuscularly (IM) on Day 0 and boosted IM on Day 28. Mice immunized with SHINGRIX® received 1, 2.5, or 5 μg, corresponding to 1/50, 1/20, and 1/10 of the human clinical dose (50 μg), respectively; mice immunized with gE_WT CO1 received 0.5 or 1 μg; mice immunized with ms3 CO1 received 0.5 μg; mice immunized with ms4 CO1 received 0.5 μg; mice immunized with gE_WT CO2 received 0.5 μg; mice immunized with lyophilized gE_WT CO1 received 0.5 or 1 μg. Saline was administered on Days 0 and 28 to a negative control group. Serum was collected from mice on Days 28 and 42 for characterization of VZV gE-binding IgG levels (LUMINEX® analyses). Spleens were harvested, and sera collected, from five mice in each group on Day 35 for cellular analyses.
Serum IgG levels were determined for each mouse sample using the LUMINEX® platform. Briefly, diluted sera were incubated in the dark in the presence of blocked, recombinant gE protein-bound single-plex microspheres (MAGPLEX® Microspheres, region 79) for 20±4 hours at 2-8° C., 300 rpm. A secondary antibody solution (R-phycoerythrin Conjugated AffiniPure F(ab)′2 Fragment Goat Anti-Mouse IgG F(ab)′2 Fragment Specific) was prepared at 1:250 in LXA-16 buffer. Plates were washed three times in LXA-20 (EIA-7), and secondary antibody was applied to each well of the assay plate. Plates were covered with aluminum sealers and incubated for 2 hours±15 minutes at 25° C., 300 rpm. Plates were washed three times with LXA-20 (EIA-7) buffer, and 100 ul LXA-20 was applied to each well. Plates were covered with aluminum sealers and incubated at 25° C., 300 rpm for a minimum of 4 minutes, or up to 2 hours. Plates were analyzed on a BIO-PLEX® Reader. IgG titers for Day, 28, 34 and 42 are show in Table 10 and FIGS. 17-19.

As for “ms3 CO1: modRNA construct, ORF SEQ ID NO: 149, VZV gE with deletion of aa 547-623, secreted”, the “VZV RNA (Vero cells) MFI” value in series [1] stood at 497. Also, in series [2], the “VZV RNA-LNPs (293T cells) MFI” value is 663 and the “VZV RNA-LNPs (293T cells) EC50 (ng/well)” value turned out to be 231 ng/well. In series [3], the “Day 28 (GMC), serum gE-binding IgG” value is 3.98; the “Day 34 (GMC), serum gE-binding IgG” value turned out to be 29.5; the “Day 42 (GMC), serum gE-binding IgG” value amounted to 370.11.

“ms4 CO1: modRNA construct, ORF SEQ ID NO: 151, full length VZV gE with substitution Y582A”: the “VZV RNA (Vero cells) MFI” value in series [1] was 981. Besides, in series [2], the “VZV RNA-LNPs (293T cells) MFI” value amounted to 1713 and the “VZV RNA-LNPs (293T cells) EC50 (ng/well)” value was found to be 15 ng/well. Besides, in series [3], the “Day 28 (GMC), serum gE-binding IgG” value came out at 3.55; the “Day 34 (GMC), serum gE-binding IgG” value is listed as 112.7; the “Day 42 (GMC), serum gE-binding IgG” value is 598.57.

For the substance “ms8: RNA constructs encoding VZV gE with deletion of the acidic domain aa 588-602 (SEQ ID NO: 6)”, in series [1] (Vero cells, 50 ng at 63× and 25 ng at 10× magnification), the “subcellular localization of VZV gE” value is given as “preferentially within cellular membranes”.
